{
  "source": "patent US20130164336A1",
  "about": "“ANTIMICROBIAL AND ANTI-INFLAMMATORY ACTION PHARMACEUTICAL COMPOSITION FOR PARENTERAL ADMINISTRATION AND ITS PRODUCTION PROCESS” (priority 2010, published 2013)",
  "assay_type_in_all_cases": "in vivo",
  "key": {"[1]": {"test_system": "Escherichia coli (ATCC No 25922 F-50)", "experiment": "Experimental sepsis model in mice, survival on the 7th day", "conditions": "E. coli 8×10^8 CFU/mouse", "source_text": "(§1) To determine therapeutic efficiency of fosfamicin and their pharmaceutical compositions including BHSiO2, we used experimental sepsis models and a statistical processing methos of the received data (χ^2) according to [29, 30].\n(§2) Microorganisms: Staphylococcus aureus (ATCC No 25923 F-49), Escherichia coli (ATCC No 25922 F-50), Pseudomonas aeruginosa (ATCC N227853 F-51).\n(§3) Animals: for the experiments we used hybrid mice (CBA×C57Black/6)CBF1 according to the “Regulations for test animals use” (USSR Ministry of health order supplement No 755 from 12.08. 1977).\n(§4) The mice have been injected 0.8 ml of Pseudomonas aeruginosa daily culture suspension with a dosage 5×10^8 CFU/mouse or Staphylococcus aureus daily culture suspension with a dosage 10^10 CFU/mouse or Escherichia coli daily culture suspension with a dosage 8×10^8 CFU/mouse. The control group has been injected with 0.8 ml of normal saline solution (0.9% sodium chloride solution). In a day after being infected the test mice have been daily (during 3 days) intravenous injected with 100 mg/kg of antibiotics or different pharmaceutical compositions (antibiotic/BHSiO2) watered down with 0.25 ml of normal saline solution. The control group of mice has been injected using the same scheme with normal saline solution 0.25 mg.\n(§5) Antimicrobial therapy efficiency has been estimated basing on the q-ty of the living mice on the 7th day of the experiment.\n(§6) The obtained data stated in Table No 2 reflect the results of 3 independent experiments conducted for each test group."}, "[2]": {"test_system": "Pseudomonas aeruginosa (ATCC N227853 F-51)", "experiment": "Experimental sepsis model in mice, survival on the 7th day", "conditions": "P. aeruginosa 5×10^8 CFU/mouse", "source_text": "as §1, §2, §3, §4, §5, §6"}, "[3]": {"test_system": "Staphylococcus aureus (ATCC No 25923 F-49)", "experiment": "Experimental sepsis model in mice, survival on the 7th day", "conditions": "S. aureus 10^10 CFU/mouse", "source_text": "as §1, §2, §3, §4, §5, §6"}, "[4]": {"test_system": "Pseudomonas aeruginosa", "experiment": "Anti-inflammatory action: peripheral blood leukocytes of mice surviving to day 7 after sepsis induction", "conditions": "mice infected with Pseudomonas aeruginosa surviving to day 7, median, low and high quartiles", "description": "as §4, with “The control group has been injected with 0.8 ml of normal saline solution (0.9% sodium chloride solution).” left out, “solution.” for “solution. The control group of mice has been injected using the same scheme with normal saline solution 0.25 mg.”\n(§7) It is known that in case of sepsis the quantity of peripheral blood leucocytes can determine the activity of the inflammatory process.\n(§8) We have studied the leukocytes quantity of the mice that have survived until the day 7 after sepsis induction, according to the method described above."}, "[5]": {"test_system": "Staphylococcus aureus", "experiment": "Anti-inflammatory action: peripheral blood leukocytes of mice surviving to day 7 after sepsis induction", "conditions": "mice infected with Staphylococcus aureus surviving to day 7, median, low and high quartiles", "description": "as §4, with “The control group has been injected with 0.8 ml of normal saline solution (0.9% sodium chloride solution).” left out, “solution.” for “solution. The control group of mice has been injected using the same scheme with normal saline solution 0.25 mg.”\nas §7, §8"}, "[6]": {"conditions": "100 mg/kg intravenous daily for 3 days"}, "[7]": {"conditions": "100 mg/kg intravenous daily for 3 days from a day after infection"}},
  "data": [
    {"smiles": "C[C@@H]1O[C@@H]1P(=O)(O)O", "note": "[Fosfomycin, fosfomycin]", "values": [
      {"measurement": "Mice survival on the 7th day, survived/infected animals (absolute values)", "setting": "[1]; [6]", "value": "(14/30)"},
      {"measurement": "Mice survival rate on the 7th day of infection", "setting": "[1]; [7]", "value": 46.6, "unit": "%"},
      {"measurement": "Mice survival on the 7th day, survived/infected animals (absolute values)", "setting": "[2]; [6]", "value": "(10/31)"},
      {"measurement": "Mice survival rate on the 7th day of infection", "setting": "[2]; [7]", "value": 32.2, "unit": "%"},
      {"measurement": "Mice survival on the 7th day, survived/infected animals (absolute values)", "setting": "[3]; [6]", "value": "(12/30)"},
      {"measurement": "Mice survival rate on the 7th day of infection", "setting": "[3]; [7]", "value": 40, "unit": "%"},
      {"measurement": "Leukocytes quantity Me(LQ-HQ)", "setting": "[4]", "value": "17.13 (16.0-18.63) × 10^9/l"},
      {"measurement": "Leukocytes quantity Me(LQ-HQ)", "setting": "[5]", "value": "17.38 (15.5-21.5) × 10^9/l"}
    ]}
  ]
}
